The values that follow come from patent US20080260659A1, “Compositions” (GIVAUDAN SA, priority 2005, published 2008).

SMILES strings stand for the structures.

Holding throughout (type): cell-based
The subject of assay [1] is Staphylococcus aureus (DSMZ 799) and Pseudomonas aeruginosa (ATCC 15442). Briefly: Bactericidal effect in a cosmetic cream (mixed inoculum 1:1). The following applies: cosmetic cream pH 5,5; 0.1% 4-hydroxybenzaldehyde, no parabens. The procedure: (§1) A cosmetic cream (pH 5,5) for application to the human skin is formulated as follows (in % w/w): […]
(§2) Glyceryl-monostearate, Sweet almond oil, Cetyl-stearyl-alcohol and Glyceryl dilaurate are melted at 80° C. Xanthan gum is dispersed into glycerine. Arginine is dissolved in water and heated to 75° C. The Xanthan gum—glycerin suspension is added to the heated water phase, the heated oil phase is added and the suspension is stirred at 300 rpm for 10 min whilst being cooled down slowly. Finally, a homogeneous emulsion is made with a high speed homogenizer at 5000 rpm.
Test samples of cream contain different amounts of preservatives and/or preservative enhancer. The preservative and preservative enhancer is added to an aliquot of 10 g of the cream in 50 ml tubes in a concentration as shown in the table below. After addition of the preservative/preservative enhancer, the cream is thoroughly mixed to achieve a homogeneous distribution.
After 1-3 days of equilibration of the cream (storage at room temperature to achieve a homogenous partitioning of compounds between oil and water phase), […]
Aliquots of these suspended and diluted samples are plated on tryptic soy agar supplemented with 0.5% Tween 80 and then incubated for 24 h at 37° C. Surviving bacteria are counted.
(§3) The count of the negative control is divided by the count of the probe and thereby the reduction factor is determined. […]

Assay [2] has as its system Aspergillus niger ATCC 16404 spores. In words: Sporicidal effect in a cosmetic cream. The following applies: cosmetic cream pH 5,5; 0.1% 4-hydroxybenzaldehyde, no parabens. The protocol:
as §1, §2
Test samples of cream contain different amounts of preservatives and/or preservative enhancer. The preservative and preservative enhancer is added to an aliquot of 10 g of the cream in 50 ml tubes in a concentration as shown in the table below. After addition of the preservative/preservative enhancer, the cream is thoroughly mixed to achieve a homogeneous distribution. […]
After regular test intervals, samples of 1 g cream are removed and added to 20 ml of a neutralizer solution containing 0.2% lecithin, 2% Tween 80 and 0.5% NaCl. […] After 48 h to 72 h the number of surviving colony forming units (and therefore surviving spores) are counted.
as §3

Assay [3] shares this test system. In words: Sporicidal effect of test compounds in water. The following applies: 0.1% test compound, 7 days. The protocol:
Aspergillus niger ATCC 16404 spores are added to water to obtain a density of 3×10^5 spores 1 ml. In order to prepare the spores, the test strain is grown for 5 days on potato dextrose agar at room temperature. The spores are harvested with a solution containing 0.1% Tween 80, peptone 0.1% and NaCl 0.85% and the spore concentration is adjusted to the density indicated above.
Test compounds are dissolved in dipropyleneglycol to a concentration of 20%.
These stock solutions are added to 10 ml aliquots of the spore suspension to obtain a final concentration of the test compounds of 0.1%. The sporicidal effect is shown by a reduction of spore counts after 7 days.
The reduction factor is determined as follows. Aliquots of the above prepared suspension of microorganisms (here: spore suspension prepared as described above) are plated on a suitable agar medium (see above) and the developing colonies are counted both for samples with test compound and for a negative probe (water). The count of the negative control is divided by the count of the test compound and thereby the reduction factor is determined. A negative control (water) accordingly has a reduction factor of 1 (no effect on the microorganism).

On to `O=Cc1ccc(O)cc1` [4-hydroxybenzaldehyde], for which the “reduction factor 24 h bacteria” value in assay [1] is 1. Also, the “reduction factor 7 d fungal spores” value in assay [2] is 1. Moreover, the “Sporicidal effect / reduction of spore counts” value (“Sporicidal effect / reduction” below) in assay [3] was “No significant reduction of spore counts”. For `COc1ccc(C=O)cc1` [4-methoxy-benzaldehyde], in assay [3], the “Sporicidal effect / reduction” value is on record as “No significant reduction of spore counts”.

Turning to `C=CCCCCCCCCO` [9-decenol, reference compound], in assay [3], the “Sporicidal effect / reduction” value was “significant sporicidal effect”.

As to `CC(CC=O)CCc1ccccc1` (stereo not drawn) [Mefranal, 3-methyl-5-phenylpentanal, reference compound], the “Sporicidal effect / reduction” value in assay [3] was “significant sporicidal effect”.
